Laboratory results as given in US3954737A, “Atropisomeric ansa ring compounds” (University of Illinois Foundation, priority 1974, dated 1976).

Legend:
M. avium = M. avium growth inhibition; format: cell-based
Protocol: (§1) Assays for inhibition of other bacterial strains were carried out according to standard uniform procedures.

S. aureus = S. aureus growth inhibition; format: cell-based
Protocol: as §1

P. aeruginosa = P. aeruginosa growth inhibition; format: cell-based
Protocol: as §1

S. schottmuelleri = S. schottmuelleri growth inhibition; format: cell-based
Protocol: as §1

E.Coli RNA Polymerase = E.Coli RNA Polymerase (Escherichia coli, UniProt P0A8V2); assay: Bacterial RNA polymerase inhibition; format: biochemical; design: concentration or dose not given beside the values; conditions: pH 7.9, 30°C, 15 min
From the text: (§2) Tables II, III and IV below respectively set forth activities of representative atropisomeric forms of ansa ring compounds of the invention relative to the "normal" isomeric forms in the following assays: (A) reverse transcriptase (RNA-directed DNA polymerase); (B) bacterial RNA polymerase; (C) B. subtilis bacterial inhibition; (D) S. lutea bacterial inhibition; and, inhibition of numerous other bacterial strains.
The assay for bacterial RNA polymerase followed the procedure of Reusser (J. Bacteriol, 105, 580 (1971)). Assay mixtures were prepared containing in a total volume of 0.25 ml: Tris-hydrochloride buffer, pH 7.9, 5 μmoles; MgCl2, 1 μmole; mercaptoethanol, 3 μmoles; MnCl2, 0.25 μmole; quanosine triphosphate, cytidine triphosphate, uridine triphosphate, 0.1 μmole each; adenosine triphosphate 8-^14 C, 0.1 μmole containing 0.05 μCi; dAT, 0.2 units; polymerase, ~35 μg. The reaction mixtures were incubated at 30°C for 15 min.

P. oxalicum = P. oxalicum growth inhibition; format: cell-based
Protocol: as §1

K. pneumoniae = K. pneumoniae growth inhibition; format: cell-based
Protocol: as §1

B. subtilis = B. subtilis bacterial inhibition, zone of inhibition (paper disc on agar); format: cell-based, B. subtilis UC 564; conditions: 1/2 inch paper discs, 0.08 ml per disc
Protocol: The assay for B. subtilis bacterial inhibition was obtained on plates with B. subtilis UC 564 spores in agar with the following composition per liter:
After autoclaving, 10 ml. of 20 percent glucose was added. The seeding rate was approximately 10^9 spores per liter. Test solutions were applied to 1/2 inch paper discs (Schleicher & Schuell 740E) with 0.08 ml. per disc. Zones of inhibition were recorded.

B. cereus = B. cereus growth inhibition; format: cell-based
Protocol: as §1

S. lutea = S. lutea bacterial inhibition; format: cell-based; conditions: brain heart broth, 37°, 16-18 hours
Protocol: The assay for S. lutea inhibition was as follows. Water-soluble preparations were dissolved in brain heart infusion broth (Difco) to 1 mg./ml. Water-insoluble preparations were dissolved (or suspended) in dimethylformamide to 10 mg./ml. and diluted with brain heart broth to 1 mg./ml. Two-fold serial dilutions were made with broth starting with 1 mg./ml. with final volumes of 0.1 ml. per dilution. Overnight bacterial cultures were diluted 1:20,000 with brain heart and 0.1 ml. of diluted culture was added to each dilution of antibiotic (final total volume was 0.2 ml.). This was all done in plastic microtest plates (Microtest II Tissue Culture Plate, Bioquest). The plates were incubated at 37° for 16-18 hours and zones of inhibition were recorded.

E. coli = E. coli growth inhibition; format: cell-based
Protocol: as §1

P. vulgaris = P. vulgaris growth inhibition; format: cell-based
Protocol: as §1

Reverse Transcriptase = assay: Reverse transcriptase (RNA-directed DNA polymerase) inhibition; format: biochemical; design: concentration or dose not given beside the values
From the text: as §2
The assay and work-up conditions for reverse transcriptase analysis were essentially those described by Brockman, et al., (Nature, 230, 249, (1971)), except for eliminating the phosphate from the washing solution (10 percent trichloroacetic acid).

S. pasteurianum = S. pasteurianum growth inhibition; format: cell-based
Protocol: as §1

E.Coli RNA Polymerase, sequence (P0A8V2 whole entry): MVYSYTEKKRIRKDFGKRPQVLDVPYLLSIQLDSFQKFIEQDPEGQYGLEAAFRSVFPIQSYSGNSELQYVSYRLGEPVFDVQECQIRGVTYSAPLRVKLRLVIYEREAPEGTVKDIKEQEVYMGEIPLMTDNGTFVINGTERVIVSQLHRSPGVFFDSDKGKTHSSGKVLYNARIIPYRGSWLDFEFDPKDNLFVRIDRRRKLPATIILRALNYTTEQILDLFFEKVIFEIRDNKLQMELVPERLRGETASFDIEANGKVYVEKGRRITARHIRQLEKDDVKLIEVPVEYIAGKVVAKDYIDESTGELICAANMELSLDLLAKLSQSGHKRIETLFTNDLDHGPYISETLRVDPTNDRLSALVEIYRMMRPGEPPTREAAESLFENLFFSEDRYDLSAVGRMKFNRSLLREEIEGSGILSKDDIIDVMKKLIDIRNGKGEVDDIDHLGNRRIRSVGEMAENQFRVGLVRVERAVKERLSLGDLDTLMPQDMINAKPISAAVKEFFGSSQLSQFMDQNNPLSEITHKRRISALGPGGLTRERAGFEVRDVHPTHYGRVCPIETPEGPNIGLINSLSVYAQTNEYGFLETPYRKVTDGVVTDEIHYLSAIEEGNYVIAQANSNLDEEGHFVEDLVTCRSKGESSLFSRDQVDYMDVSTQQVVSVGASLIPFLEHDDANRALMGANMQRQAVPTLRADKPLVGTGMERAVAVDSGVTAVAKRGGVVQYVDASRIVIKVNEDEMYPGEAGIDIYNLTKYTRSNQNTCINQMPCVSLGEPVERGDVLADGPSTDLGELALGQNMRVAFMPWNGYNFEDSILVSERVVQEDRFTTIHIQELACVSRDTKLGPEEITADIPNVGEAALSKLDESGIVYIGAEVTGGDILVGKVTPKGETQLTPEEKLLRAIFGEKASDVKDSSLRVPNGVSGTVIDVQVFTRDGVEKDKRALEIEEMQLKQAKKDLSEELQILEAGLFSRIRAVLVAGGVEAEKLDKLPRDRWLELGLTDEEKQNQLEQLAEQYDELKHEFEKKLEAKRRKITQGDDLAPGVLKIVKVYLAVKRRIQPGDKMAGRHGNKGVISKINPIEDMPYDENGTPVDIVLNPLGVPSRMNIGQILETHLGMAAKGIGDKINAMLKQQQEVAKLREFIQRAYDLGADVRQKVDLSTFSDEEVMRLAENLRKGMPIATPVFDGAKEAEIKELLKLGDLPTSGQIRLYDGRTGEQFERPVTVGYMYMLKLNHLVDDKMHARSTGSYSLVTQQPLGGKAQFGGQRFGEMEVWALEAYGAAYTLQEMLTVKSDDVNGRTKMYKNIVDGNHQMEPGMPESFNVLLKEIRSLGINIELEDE
E.Coli RNA Polymerase, sequence (P0A8T7 whole entry partner): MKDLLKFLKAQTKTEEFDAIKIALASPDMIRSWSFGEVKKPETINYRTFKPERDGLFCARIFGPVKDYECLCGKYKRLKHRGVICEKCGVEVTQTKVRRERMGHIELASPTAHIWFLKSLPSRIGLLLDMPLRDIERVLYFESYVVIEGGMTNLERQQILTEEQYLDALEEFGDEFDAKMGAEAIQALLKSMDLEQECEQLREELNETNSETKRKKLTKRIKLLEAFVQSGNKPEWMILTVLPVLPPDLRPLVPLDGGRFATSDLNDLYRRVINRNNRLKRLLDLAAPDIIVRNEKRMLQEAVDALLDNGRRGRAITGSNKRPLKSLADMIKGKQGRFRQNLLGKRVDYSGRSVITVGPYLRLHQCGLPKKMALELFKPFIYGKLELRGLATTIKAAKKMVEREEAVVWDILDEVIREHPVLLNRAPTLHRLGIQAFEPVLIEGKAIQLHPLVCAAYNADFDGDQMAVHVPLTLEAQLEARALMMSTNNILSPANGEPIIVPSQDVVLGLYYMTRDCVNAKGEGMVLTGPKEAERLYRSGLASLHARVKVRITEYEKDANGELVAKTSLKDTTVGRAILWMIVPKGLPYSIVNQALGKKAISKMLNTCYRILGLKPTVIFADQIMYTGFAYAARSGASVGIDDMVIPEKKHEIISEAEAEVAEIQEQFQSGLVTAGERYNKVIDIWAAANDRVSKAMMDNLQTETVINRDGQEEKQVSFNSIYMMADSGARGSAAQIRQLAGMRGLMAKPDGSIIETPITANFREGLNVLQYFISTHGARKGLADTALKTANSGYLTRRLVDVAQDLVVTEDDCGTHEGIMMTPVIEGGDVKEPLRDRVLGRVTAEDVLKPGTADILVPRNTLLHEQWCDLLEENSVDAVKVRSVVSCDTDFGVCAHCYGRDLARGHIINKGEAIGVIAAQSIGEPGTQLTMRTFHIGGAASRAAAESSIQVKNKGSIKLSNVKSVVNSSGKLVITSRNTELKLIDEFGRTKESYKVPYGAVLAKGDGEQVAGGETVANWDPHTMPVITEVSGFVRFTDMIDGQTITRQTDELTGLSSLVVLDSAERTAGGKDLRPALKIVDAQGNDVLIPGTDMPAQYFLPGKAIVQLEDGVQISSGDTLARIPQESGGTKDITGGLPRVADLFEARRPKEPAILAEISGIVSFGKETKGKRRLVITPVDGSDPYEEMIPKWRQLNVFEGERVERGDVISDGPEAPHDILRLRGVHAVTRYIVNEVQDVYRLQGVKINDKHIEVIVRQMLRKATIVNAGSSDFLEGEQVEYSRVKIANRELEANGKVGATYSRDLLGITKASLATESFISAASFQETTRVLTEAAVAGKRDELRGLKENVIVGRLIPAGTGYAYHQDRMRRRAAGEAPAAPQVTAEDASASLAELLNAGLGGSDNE
E.Coli RNA Polymerase, sequence (P0A7Z4 whole entry partner): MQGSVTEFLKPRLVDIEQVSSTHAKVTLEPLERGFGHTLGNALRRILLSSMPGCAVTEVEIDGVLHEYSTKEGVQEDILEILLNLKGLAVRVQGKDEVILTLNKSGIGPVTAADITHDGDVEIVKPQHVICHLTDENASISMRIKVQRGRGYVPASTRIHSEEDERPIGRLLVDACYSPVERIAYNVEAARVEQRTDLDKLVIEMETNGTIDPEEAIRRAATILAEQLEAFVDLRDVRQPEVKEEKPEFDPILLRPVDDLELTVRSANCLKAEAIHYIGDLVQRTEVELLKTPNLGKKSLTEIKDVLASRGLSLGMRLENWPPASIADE
E.Coli RNA Polymerase, sequence (P0A800 whole entry partner): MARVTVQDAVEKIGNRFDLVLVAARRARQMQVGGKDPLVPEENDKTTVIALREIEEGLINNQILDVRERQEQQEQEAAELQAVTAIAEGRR

Row | Molecule | Zone of Inhibition (M. avium) [mm.] | Zone of Inhibition (S. aureus) [mm.] | Zone of Inhibition (P. aeruginosa) [mm.] | Zone of Inhibition (S. schottmuelleri) [mm.] | E.Coli RNA Polymerase % Inhibition (E.Coli RNA Polymerase; Table III) [%] | Zone of Inhibition (P. oxalicum) [mm.] | Zone of Inhibition (K. pneumoniae) [mm.] | Zone of Inhibition (B. subtilis) [mm.] | Zone of Inhibition (B. cereus) [mm.] | Zone of Inhibition (S. lutea) [mm.] | Zone of Inhibition (E. coli) [mm.] | Zone of Inhibition (P. vulgaris) [mm.] | Reverse Transcriptase % Inhibition (Reverse Transcriptase; Table II) | Zone of Inhibition (S. pasteurianum) [mm.] | E.Coli RNA Polymerase % Inhibition (E.Coli RNA Polymerase; Table IIIA) [%] | Reverse Transcriptase % Inhibition (Reverse Transcriptase; Table IIA) [%]
1 | COC(=O)C1C(O)C(C)C(O)C(C)/C=C/C=C(\C)C(=O)Nc2c(C)c(OC(C)=O)c3c(c2O)C(=O)C(C)=C2OCOC(=C23)/C(C)=C\C(C)(O)C(O)C(C)C1O (stereo not shown) [Atropisostreptovaricin C, atropisostreptovaricin C] | 20 | 20 | 0 | 0 | 50 | 0 | 0 | 14 | 9 | 28 | 0 | 0 | 70% | 0 |  | 
2 | COC(=O)[C@@H]1[C@H](O)[C@H](C)[C@H](O)[C@H](C)/C=C\C=C(/C)C(=O)Nc2c(C)c(OC(C)=O)c3c(c2O)C(=O)C(C)=C2OCOC(=C23)/C(C)=C/[C@@](C)(O)[C@H](O)[C@@H](C)[C@H]1O [Streptovaricin C, streptovaricin C, reference compound] | 15 | 26 |  | 10 | 78 | 0 | 21 | 22 |  | 33 | 13 | 8 | 31-53% |  |  | 
3 | CC(=O)Oc1c(C)c2c(O)c3c1C1=C(OCOC1=C(C)C3=O)C(C)=CC(C)(O)C(O)C(C)C(O)C1C(=O)OC(C(C)/C=C\C=C(C)C(=O)N2)C(C)C1O (stereo not shown) [Streptovaricin Fc, streptovaricin Fc, reference compound] | 14 | 0 | 0 | 0 | 0 | 0 | 0 | 0 | 0 | 0 | 0 | 0 | 68% | 0 |  | 
4 | atropisostreptovaricin C triacetate cyclic benzeneboronate |  |  |  |  |  |  |  |  |  |  |  |  |  |  | 23 | 77
5 | atropisostreptovaricin C triacetate cyclic bromobenzeneboronate [Atropisostreptovaricin C Triacetate Cyclic p-Bromobenzeneboronate] |  |  |  |  |  |  |  |  |  |  |  |  |  |  | 46 | 66
6 | atropisostreptovaricin Fc | 0 | 0 | 0 | 0 | 0 | 0 | 0 | 0 | 0 | 0 | 0 | 0 | 54% | 0 |  | 
7 | streptovaricin C triacetate cyclic benzeneboronate [reference compound] |  |  |  |  |  |  |  |  |  |  |  |  |  |  | 2 | 44
8 | streptovaricin C triacetate cyclic bromobenzeneboronate [reference compound] |  |  |  |  |  |  |  |  |  |  |  |  |  |  | 20 | 57
